Experimental data taken from patent US20260022142A1, “MACROCYCLIC IMMUNOMODULATORS” (Bristol-Myers Squibb Company, priority 2022, published 2026).
Bridge positions count the residues as written; N and C are the ends. Square brackets hold non-standard residues; d marks the D form. Peptide text beside a SMILES is read from it. * marks the point of attachment. Phe(4-CONH2) = NC(=O)c1ccc(C[C@H](N)C(=O)O)cc1; Phe(4-COOH) = N[C@@H](Cc1ccc(C(=O)O)cc1)C(=O)O; Bip = N[C@@H](Cc1ccc(-c2ccccc2)cc1)C(=O)O; NH(CH2)14COOH = O=C(O)CCCCCCCCCCCCCCN*; Phe(3-Me) = Cc1cccc(C[C@H](N)C(=O)O)c1; NH(CH2)12COOH = O=C(O)CCCCCCCCCCCCN*; Val(3-OH) = CC(C)(O)[C@H](N)C(=O)O; Cha = N[C@@H](CC1CCCCC1)C(=O)O; Carboxymethyl = O=C(O)C*; Orn = NCCC[C@H](N)C(=O)O; Dab = NCC[C@H](N)C(=O)O; AEEA = NCCOCCOCC(=O)O

Target: T1, PD-1/PD-L1 interaction (PE-labeled human PD-L1-Ig binding to Jurkat cell line over-expressing human PD-1) (Homo sapiens, UniProt Q15116)
T1 construct: expressed in transfected cells; host or cells: Jurkat
Assay: Jurkat-PD-1 Cell Binding High-Content Screening Assay (CBA)
Format: cell-based
Details: Jurkat cell line over-expressing human PD-1; PE-labeled PD-L1-Ig 20 nM final; read-out: Jurkat hPD1-PDL1 IC50
In short: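 Read-out is high-content imaging of cell-bound phycoerythrin-tagged PD-L1-Ig on fixed, Hoechst-counterstained Jurkat cells that over-express human PD-1. Compound exposure lasts 2 h at 37° C before the labeled ligand (20 nM final) is added for a further hour.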

T1 sequence (Q15116 25-288): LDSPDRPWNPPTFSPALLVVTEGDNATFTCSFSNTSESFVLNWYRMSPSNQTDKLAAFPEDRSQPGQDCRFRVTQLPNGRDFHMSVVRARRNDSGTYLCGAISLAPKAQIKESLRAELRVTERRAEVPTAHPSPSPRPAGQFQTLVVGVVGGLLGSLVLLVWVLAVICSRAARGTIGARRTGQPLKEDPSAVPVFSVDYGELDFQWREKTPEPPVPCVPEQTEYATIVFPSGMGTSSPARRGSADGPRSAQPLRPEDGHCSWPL

| Structure (SMILES) | IC50 [nM] |
| --- | --- |
| Cc1cccc(C[C@@H]2NC(=O)[C@H](CC(=O)O)NC(=O)[C@H](Cc3ccc(OCC(=O)O)cc3)NC(=O)[C@H](CCN)NC(=O)CSC[C@@H](C(=O)N[C@@H](CCN)C(=O)NCCOCCOCC(=O)NCCOCCOCC(=O)NCCCCCCCCCCCCC(=O)O)NC(=O)[C@H](CCC(=O)O)NC(=O)[C@H](C(C)(C)O)NC(=O)[C@H](CC3CCCCC3)NC(=O)[C@H](CCN)NC(=O)[C@@H](CC(C)C)NC(=O)[C@H](CCCN)NC(=O)[C@H](Cc3ccc(C(=O)O)cc3)NC(=O)[C@H](Cc3ccc(-c4ccccc4)cc3)NC(=O)[C@H](Cc3ccc(C(=O)O)cc3)NC2=O)c1 [Compound 3759] ({CH2CO}-[Dab]Y(Carboxymethyl)D[Phe(3-Me)][Phe(4-COOH)][Bip][Phe(4-COOH)][Orn][dL][Dab][Cha][Val(3-OH)]EC[Dab][AEEA][AEEA]-{NH(CH2)12COOH}; thioether N-14) | 39.2 |
| Cc1cccc(C[C@@H]2NC(=O)[C@H](CC(=O)O)NC(=O)[C@H](Cc3ccc(OCC(=O)O)cc3)NC(=O)[C@H](CCN)NC(=O)CSC[C@@H](C(=O)N[C@@H](CCN)C(=O)NCCOCCOCC(=O)NCCOCCOCC(=O)NCCCCCCCCCCCCC(=O)O)NC(=O)[C@H](Cc3cnc[nH]3)NC(=O)[C@H](C(C)(C)O)NC(=O)[C@H](CC3CCCCC3)NC(=O)[C@H](CCN)NC(=O)[C@@H](CC(C)C)NC(=O)[C@H](CCCN)NC(=O)[C@H](Cc3ccc(OCC(=O)O)cc3)NC(=O)[C@H](Cc3ccc(-c4ccccc4)cc3)NC(=O)[C@H](Cc3ccc(OCC(=O)O)cc3)NC2=O)c1 [Compound 3760] ({CH2CO}-[Dab]Y(Carboxymethyl)D[Phe(3-Me)]Y(Carboxymethyl)[Bip]Y(Carboxymethyl)[Orn][dL][Dab][Cha][Val(3-OH)]HC[Dab][AEEA][AEEA]-{NH(CH2)12COOH}; thioether N-14) | 4.7 |
| Cc1cccc(C[C@@H]2NC(=O)[C@H](CC(=O)O)NC(=O)[C@H](Cc3ccc(OCC(=O)O)cc3)NC(=O)[C@H](CCN)NC(=O)CSC[C@@H](C(=O)N[C@@H](CCN)C(=O)NCCOCCOCC(=O)NCCOCCOCC(=O)NCCOCCOCC(=O)NCCCCCCCCCCCCCCC(=O)O)NC(=O)[C@H](Cc3c[nH]cn3)NC(=O)[C@H](C(C)(C)O)NC(=O)[C@H](CC3CCCCC3)NC(=O)[C@H](CCN)NC(=O)[C@@H](CC(C)C)NC(=O)[C@H](CCCN)NC(=O)[C@H](Cc3ccc(C(=O)O)cc3)NC(=O)[C@H](Cc3ccc(-c4ccccc4)cc3)NC(=O)[C@H](Cc3ccc(C(N)=O)cc3)NC2=O)c1 [Compound 3761] ({CH2CO}-[Dab]Y(Carboxymethyl)D[Phe(3-Me)][Phe(4-CONH2)][Bip][Phe(4-COOH)][Orn][dL][Dab][Cha][Val(3-OH)]HC[Dab][AEEA][AEEA][AEEA]-{NH(CH2)14COOH}; thioether N-14) | 36.8 |
| Cc1cccc(C[C@@H]2NC(=O)[C@H](CC(=O)O)NC(=O)[C@H](Cc3ccc(OCC(=O)O)cc3)NC(=O)[C@H](CCN)NC(=O)CSC[C@@H](C(=O)N[C@@H](CCN)C(=O)NCCOCCOCC(=O)NCCOCCOCC(=O)NCCCCCCCCCCCCCCC(=O)O)NC(=O)[C@H](Cc3cnc[nH]3)NC(=O)[C@H](C(C)(C)O)NC(=O)[C@H](CC3CCCCC3)NC(=O)[C@H](CCN)NC(=O)[C@@H](CC(C)C)NC(=O)[C@H](CCCN)NC(=O)[C@H](Cc3ccc(C(=O)O)cc3)NC(=O)[C@H](Cc3ccc(-c4ccccc4)cc3)NC(=O)[C@H](Cc3ccc(C(=O)O)cc3)NC2=O)c1 [Compound 3762] ({CH2CO}-[Dab]Y(Carboxymethyl)D[Phe(3-Me)][Phe(4-COOH)][Bip][Phe(4-COOH)][Orn][dL][Dab][Cha][Val(3-OH)]HC[Dab][AEEA][AEEA]-{NH(CH2)14COOH}; thioether N-14) | 27.5 |
